# Reference: US6898533B1, “Methods for predicting the biological, chemical, and physical properties of molecules from their spectral properties” (The United States of America as represented by the …, priority 2000, dated 2005)
# Read-outs that look alike come from different tables or passages of the source.
# Legend:
# [1] = target: beta (ERβ) estrogen receptor (Rattus norvegicus, UniProt Q62986); conditions: cited from earlier work
# [2] = target: T1, alpha (ERα) estrogen receptor (Homo sapiens, UniProt P03372); conditions: cited from earlier work
# T1 sequence (P03372 1-595): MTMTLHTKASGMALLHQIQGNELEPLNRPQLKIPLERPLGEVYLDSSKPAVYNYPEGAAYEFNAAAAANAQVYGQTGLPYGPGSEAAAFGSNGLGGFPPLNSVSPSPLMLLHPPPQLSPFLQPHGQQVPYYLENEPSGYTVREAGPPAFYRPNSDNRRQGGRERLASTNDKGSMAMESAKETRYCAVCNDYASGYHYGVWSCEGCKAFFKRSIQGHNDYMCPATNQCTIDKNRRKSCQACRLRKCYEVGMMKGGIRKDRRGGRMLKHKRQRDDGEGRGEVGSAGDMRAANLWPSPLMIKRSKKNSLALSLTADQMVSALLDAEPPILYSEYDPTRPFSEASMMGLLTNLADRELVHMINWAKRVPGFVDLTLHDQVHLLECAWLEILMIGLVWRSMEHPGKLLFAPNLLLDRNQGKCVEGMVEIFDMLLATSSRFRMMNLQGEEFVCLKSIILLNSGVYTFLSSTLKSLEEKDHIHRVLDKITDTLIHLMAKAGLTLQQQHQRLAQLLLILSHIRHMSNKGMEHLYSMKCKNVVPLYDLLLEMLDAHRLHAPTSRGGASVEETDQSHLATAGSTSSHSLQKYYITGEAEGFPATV
# estrogen receptor [3] = experiment: estrogen receptor binding class of the 30-compound training set
# From the text: Two Spectral Data-Activity Relationship (SDAR) models were established, based on ^13C NMR and EI MS spectra, for 30 estrogenic chemicals whose relative binding affinities (RBA) for the alpha (ERα) and beta (ERβ) estrogen receptors are available.
# Strong binders to the estrogen receptor were classified as having a log (RBA) over 0.0, and medium binders to the estrogen receptor were classified as having a log (RBA) of less than or equal to 0.0.
# estrogen receptor [4] = conditions: 107-compound training set; cited from earlier work
# estrogen receptor [5] = experiment: estrogen receptor relative binding affinity, expanded training set of 107 compounds; conditions: input class, 107-compound training set
# From the text: The training set included weak estrogen receptor binders in addition to strong and medium estrogen receptor binders.
# For this model, strong estrogen receptor binders were defined as having log(RBA)>−0.25 and weak estrogen receptor binders were defined as having log(RBA)<−3.0. Medium estrogen receptor binders were defined as having log(RBA) in between.
# [6] = SDAR training input endpoint class, 30 compounds
# [7] = log of relative binding affinity, 17-β-estradiol RBA = 100
# beta (ERβ) estrogen receptor, sequence (Q62986 whole entry): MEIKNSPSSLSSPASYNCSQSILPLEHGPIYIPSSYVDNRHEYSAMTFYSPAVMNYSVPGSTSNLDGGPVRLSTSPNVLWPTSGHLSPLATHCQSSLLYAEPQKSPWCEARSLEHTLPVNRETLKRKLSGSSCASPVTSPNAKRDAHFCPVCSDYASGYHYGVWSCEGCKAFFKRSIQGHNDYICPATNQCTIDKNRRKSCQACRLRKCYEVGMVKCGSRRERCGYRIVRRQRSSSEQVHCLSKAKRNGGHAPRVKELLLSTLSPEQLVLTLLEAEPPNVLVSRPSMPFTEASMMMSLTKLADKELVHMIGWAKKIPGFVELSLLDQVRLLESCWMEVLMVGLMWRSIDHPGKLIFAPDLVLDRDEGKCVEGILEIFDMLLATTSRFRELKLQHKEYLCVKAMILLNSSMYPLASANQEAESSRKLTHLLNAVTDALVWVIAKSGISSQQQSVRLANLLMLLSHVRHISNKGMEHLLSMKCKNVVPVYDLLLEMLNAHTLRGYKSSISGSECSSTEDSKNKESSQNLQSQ
Structure (SMILES),Log-(RBA) beta [1],Log-(RBA) alpha [2],Class Input (estrogen receptor [3]; [6]),Class Input (estrogen receptor [3]),RBA class in words (estrogen receptor [3]),"Log-(RBA) beta [1, 7]",log RBA (estrogen receptor [4]),"Log-(RBA) alpha [2, 7]",Class (estrogen receptor [5])
C[C@]12CC[C@H](O)CC1=CC[C@@H]1[C@@H]2CC[C@]2(C)C(=O)CC[C@@H]12 [Dehydroepiandroster-one],−1.15,−1.40,M (medium binders to the estrogen receptor were classified as having a log (RBA) of less than or equal to 0.0),–,–,–,–,–,–
C[C@]12CCC(=O)C[C@H]1CC[C@@H]1[C@@H]2CC[C@]2(C)C(=O)CC[C@@H]12 [5β-Androstanedione],<−2.0,<−2.0,–,M (key: Strong binders to the estrogen receptor were classified as having a log (RBA) over 0.0; M: medium binders to the estrogen receptor were classified as having a log (RBA) of less than or equal to 0.0),medium,–,–,–,–
C#C[C@]1(O)CC[C@H]2[C@@H]3CCc4cc(O)ccc4[C@H]3[C@@H](OC)C[C@@]21C [Moxestrol],–,–,S (Strong binders to the estrogen receptor were classified as having a log (RBA) over 0.0),–,–,0.70,1.14,1.63,S (strong estrogen receptor binders were defined as having log(RBA)>−0.25)
"C[C@]12CC[C@@H]3c4ccc(O)c(O)c4CC[C@H]3[C@@H]1CC[C@@H]2O [4-OH-Estradiol, 4-hydroxy-estradiol]",–,–,S (Strong binders to the estrogen receptor were classified as having a log (RBA) over 0.0),–,–,0.85,–,1.11,S (strong estrogen receptor binders were defined as having log(RBA)>−0.25)
"CC(C)(c1ccc(O)cc1)c1ccc(O)cc1 [Bisphenol A, 4,4′-isopropylidenediphenol]",–,–,M (medium binders to the estrogen receptor were classified as having a log (RBA) of less than or equal to 0.0),–,–,−0.48,−2.11,−1.30,M (Medium estrogen receptor binders were defined as having log(RBA) in between)
C/C=C(/C(=C/C)c1ccc(O)cc1)c1ccc(O)cc1 [Dienestrol],–,–,S (Strong binders to the estrogen receptor were classified as having a log (RBA) over 0.0),–,–,2.61,1.57,2.35,S (strong estrogen receptor binders were defined as having log(RBA)>−0.25)
C[C@]12CC[C@H]3[C@@H](CCC4=CC(=O)CC[C@@H]43)[C@@H]1CC[C@@H]2O [Nandrolone],−0.64,−2.00,M (medium binders to the estrogen receptor were classified as having a log (RBA) of less than or equal to 0.0),–,–,–,–,–,–
C[C@]12CCC(=O)C[C@@H]1CC[C@@H]1[C@@H]2CC[C@]2(C)C(=O)CC[C@@H]12 [5α-Androstanedione],<−2.0,<−2.0,–,M (key: Strong binders to the estrogen receptor were classified as having a log (RBA) over 0.0; M: medium binders to the estrogen receptor were classified as having a log (RBA) of less than or equal to 0.0),medium,–,–,–,–
CC[C@H](c1ccc(O)cc1)[C@@H](CC)c1ccc(O)cc1 [Hexestrol],–,–,S (Strong binders to the estrogen receptor were classified as having a log (RBA) over 0.0),–,–,2.37,2.48,2.48,S (strong estrogen receptor binders were defined as having log(RBA)>−0.25)
"C[C@]12CC[C@H](O)C[C@@H]1CC[C@@H]1[C@@H]2CC[C@]2(C)[C@@H](O)CC[C@@H]12 [3β-Androstanediol, 5α-Androstane-3β,17β-diol]",0.85,0.48,–,S (key: Strong binders to the estrogen receptor were classified as having a log (RBA) over 0.0; M: medium binders to the estrogen receptor were classified as having a log (RBA) of less than or equal to 0.0),–,–,−0.92,–,M (Medium estrogen receptor binders were defined as having log(RBA) in between)
"C[C@]12CC[C@@H](O)C[C@@H]1CC[C@@H]1[C@@H]2CC[C@]2(C)[C@@H](O)CC[C@@H]12 [3α-Androstanediol, 5α-Androstane-3α,17β-diol]",−0.52,−1.15,M (medium binders to the estrogen receptor were classified as having a log (RBA) of less than or equal to 0.0),–,medium,–,−2.67,–,M (Medium estrogen receptor binders were defined as having log(RBA) in between)
CC(=O)[C@H]1CC[C@H]2[C@@H]3CCC4=CC(=O)CC[C@]4(C)[C@H]3CC[C@]12C [Progesterone],–,–,M (medium binders to the estrogen receptor were classified as having a log (RBA) of less than or equal to 0.0),–,–,−3.50,–,−3.50,W (weak estrogen receptor binders were defined as having log(RBA)<−3.0)
COc1ccc(C(c2ccc(OC)cc2)C(Cl)(Cl)Cl)cc1 [Methoxychlor],−0.89,−2.00,M (medium binders to the estrogen receptor were classified as having a log (RBA) of less than or equal to 0.0),–,–,–,−3.2,–,–
